This note sets out measurements from patent US12440496B2, “Natriuretic peptide receptor a agonists useful for the treatment of cardiometabolic diseases, kidney disease and diabetes” (Merck Sharp & Dohme LLC, priority 2019, dated 2025).

The term EC50 denotes the midpoint of the concentration-response curve. A higher EC50 goes with lower potency in that assay.

This test has as its target T1, hNPRA (Homo sapiens, UniProt P16066).
T1 construct: expressed in transfected cells
T1 sequence (P16066 33-1061): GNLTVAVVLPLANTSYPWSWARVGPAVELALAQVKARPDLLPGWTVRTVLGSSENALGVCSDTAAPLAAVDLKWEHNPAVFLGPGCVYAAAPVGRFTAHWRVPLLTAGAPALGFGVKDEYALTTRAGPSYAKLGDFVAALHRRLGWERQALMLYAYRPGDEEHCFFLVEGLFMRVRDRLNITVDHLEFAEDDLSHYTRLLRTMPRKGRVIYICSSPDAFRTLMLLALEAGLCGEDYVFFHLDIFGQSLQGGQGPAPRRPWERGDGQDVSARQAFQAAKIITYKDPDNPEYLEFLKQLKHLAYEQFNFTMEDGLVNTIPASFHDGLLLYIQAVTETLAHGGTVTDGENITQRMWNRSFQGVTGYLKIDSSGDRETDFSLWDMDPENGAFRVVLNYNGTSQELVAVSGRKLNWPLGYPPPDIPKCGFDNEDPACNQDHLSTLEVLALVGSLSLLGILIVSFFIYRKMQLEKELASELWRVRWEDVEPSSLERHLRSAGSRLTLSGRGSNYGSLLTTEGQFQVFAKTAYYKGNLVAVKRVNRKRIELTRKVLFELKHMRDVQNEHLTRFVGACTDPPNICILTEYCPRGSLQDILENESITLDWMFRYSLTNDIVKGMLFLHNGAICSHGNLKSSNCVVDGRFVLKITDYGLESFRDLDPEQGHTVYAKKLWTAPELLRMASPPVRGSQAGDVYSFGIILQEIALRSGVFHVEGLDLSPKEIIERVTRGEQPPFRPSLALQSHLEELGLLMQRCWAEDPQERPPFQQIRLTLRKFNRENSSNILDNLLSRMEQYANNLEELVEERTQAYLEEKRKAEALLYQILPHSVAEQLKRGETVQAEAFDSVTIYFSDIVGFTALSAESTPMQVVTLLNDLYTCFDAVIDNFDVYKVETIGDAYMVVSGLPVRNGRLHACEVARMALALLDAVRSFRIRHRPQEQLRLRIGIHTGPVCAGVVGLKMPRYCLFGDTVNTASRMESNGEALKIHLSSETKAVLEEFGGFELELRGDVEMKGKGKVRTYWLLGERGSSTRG
As to the kind of experiment: NPRA Functional Cell Assay (cGMP HTRF, NPRA HEK JumpIn stable cells). The format is cell-based. As to conditions: cGMP production, 1 hour at 37° C., 10-point dose response. In a few lines: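 cGMP HTRF read-out after 1 hour compound treatment at 37° C. of human NPRA-expressing HEK JumpIn cells, 1500 cells/well, in buffer with phosphodiesterase inhibitors IBMX and RO20 (100 uM each). Signal converted to [cGMP] by calibration curve; EC50s fitted by 4-parameter logistic; 50 nM h-ANP as positive response.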
`CC(C)(C)[C@H]1CCc2nc3sc(C(=O)N[C@H](CCN4CCC(O)CC4)c4ccc(-c5cnoc5)cc4)nc3cc2C1` (racemic) [Example 176, rac-(7S)-7-tert-butyl-N-[rac-(1R)-3-(4-hydroxypiperidin-1-ium-1-yl)-1-(4-isoxazol-4-ylphenyl)propyl]-5,6,7,8-tetrahydrothiazolo[5,4-b]quinoline-2-carboxamide; 2,2,2-trifluoroacetate] had an EC50 of 1030 nM. As for `Cn1nnnc1-c1ccc([C@@H](CCN2CCC(O)CC2)NC(=O)c2nc3cc4c(nc3s2)CC[C@H](C(C)(C)C)C4)cc1` (racemic) [Example 177, rac-(7S)-7-tert-butyl-N-[rac-(1R)-3-(4-hydroxypiperidin-1-ium-1-yl)-1-[4-(1-methyltetrazol-5-yl)phenyl]propyl]-5,6,7,8-tetrahydrothiazolo[5,4-b]quinoline-2-carboxamide; 2,2,2-trifluoroacetate], the figure is 1150 nM; as for `CC(C)(C)[C@H]1CCc2nc3sc(C(=O)N[C@H](CCN4CCC(O)CC4)c4ccc(-c5nc[nH]c5C#N)cc4)nc3cc2C1` (racemic) [Example 178, rac-(7S)-7-tert-butyl-N-[rac-(1R)-1-[4-(5-cyano-1H-imidazol-4-yl)phenyl]-3-(4-hydroxy-1-piperidyl)propyl]-5,6,7,8-tetrahydrothiazolo[5,4-b]quinoline-2-carboxamide], 1250 nM; as for `Cn1cncc1-c1ccc([C@@H](CCN2CCC(O)CC2)NC(=O)c2nc3cc4c(nc3s2)CC[C@H](C(C)(C)C)C4)cc1` (racemic) [Example 179, rac-(7S)-7-tert-butyl-N-[rac-(1R)-3-(4-hydroxy-1-piperidyl)-1-[4-(3-methylimidazol-4-yl)phenyl]propyl]-5,6,7,8-tetrahydrothiazolo[5,4-b]quinoline-2-carboxamide], 1420 nM.

For `CC(C)(C)[C@H]1CCc2nc3sc(C(=O)N[C@H](CCN4CCC(O)CC4)c4ccc(-c5cnsc5)cc4)nc3cc2C1` (racemic) [Example 180, rac-(7S)-7-tert-butyl-N-[rac-(1R)-3-(4-hydroxy-1-piperidyl)-1-(4-isothiazol-4-ylphenyl)propyl]-5,6,7,8-tetrahydrothiazolo[5,4-b]quinoline-2-carboxamide], the midpoint of the response, the EC50, lay at 1440 nM. `CC(C)(C)[C@H]1CCc2nc3sc(C(=O)N[C@H](CCN4CCC(O)CC4)c4ccc(-c5ncc(O)cc5F)cc4)nc3cc2C1` (racemic) [Example 181, rac-(7S)-7-tert-butyl-N-[rac-(1R)-1-[4-(3-fluoro-5-hydroxy-2-pyridyl)phenyl]-3-(4-hydroxypiperidin-1-ium-1-yl)propyl]-5,6,7,8-tetrahydrothiazolo[5,4-b]quinoline-2-carboxamide; 2,2,2-trifluoroacetate] yielded an EC50 of 1440 nM. In the case of `CC(C)(C)[C@H]1CCc2nc3sc(C(=O)N[C@H](CCN4CCC(O)CC4)c4ccc(-c5cc(=O)[nH]c(=O)[nH]5)cc4)nc3cc2C1` (racemic) [Example 182, rac-(7S)-7-tert-butyl-N-[rac-(1R)-1-[4-(2,4-dioxo-1H-pyrimidin-6-yl)phenyl]-3-(4-hydroxy-1-piperidyl)propyl]-5,6,7,8-tetrahydrothiazolo[5,4-b]quinoline-2-carboxamide], a half-maximal effect (EC50) was put at 1610 nM. Consider `CC(C)(C)[C@H]1CCc2nc3sc(C(=O)N[C@H](CCN4CCC(O)CC4)c4ccc(-c5cnsn5)cc4)nc3cc2C1` (racemic) [Example 183, rac-(7S)-7-tert-butyl-N-[rac-(1R)-3-(4-hydroxy-1-piperidyl)-1-[4-(1,2,5-thiadiazol-3-yl)phenyl]propyl]-5,6,7,8-tetrahydrothiazolo[5,4-b]quinoline-2-carboxamide], for which the EC50 was found to be 1660 nM. For `CC(C)(C)[C@H]1CCc2nc3sc(C(=O)N[C@H](CCN4CCC(O)CC4)c4ccc(-c5cc(F)c(O)c(F)c5)cc4)nc3cc2C1` (racemic) [Example 184, rac-(7S)-7-tert-butyl-N-[rac-(1R)-1-[4-(3,5-difluoro-4-hydroxy-phenyl)phenyl]-3-(4-hydroxypiperidin-1-ium-1-yl)propyl]-5,6,7,8-tetrahydrothiazolo[5,4-b]quinoline-2-carboxamide; 2,2,2-trifluoroacetate] the value was 1700 nM; for `CC(C)(C)[C@H]1CCc2nc3sc(C(=O)N[C@H](CCN4CCC(O)CC4)c4ccc(-c5cncs5)cc4)nc3cc2C1` (racemic) [Example 185, rac-(7S)-7-tert-butyl-N-[rac-(1R)-3-(4-hydroxypiperidin-1-ium-1-yl)-1-(4-thiazol-5-ylphenyl)propyl]-5,6,7,8-tetrahydrothiazolo[5,4-b]quinoline-2-carboxamide; 2,2,2-trifluoroacetate], 1920 nM; for `CC(C)(C)[C@H]1CCc2nc3sc(C(=O)N[C@H](CCN4CCC(O)CC4)c4ccc(N5CCOC5=O)nc4)nc3cc2C1` (racemic) [Example 186, rac-(7S)-7-tert-butyl-N-[rac-(1R)-3-(4-hydroxy-1-piperidyl)-1-[6-(2-oxooxazolidin-3-yl)-3-pyridyl]propyl]-5,6,7,8-tetrahydrothiazolo[5,4-b]quinoline-2-carboxamide], 350 nM. Turning to `Cc1nn(-c2ccc([C@@H](CCN3CCC(O)CC3)NC(=O)c3nc4cc5c(nc4s3)CC[C@H](C(C)(C)C)C5)cn2)c(C)c1O` (racemic) [Example 187, ammonium; 3,5-dimethyl-1-[5-[rac-(1R)-3-(4-hydroxy-1-piperidyl)-1-[[rac-(7S)-7-tert-butyl-5,6,7,8-tetrahydrothiazolo[5,4-b]quinoline-2-carbonyl]amino]propyl]-2-pyridyl]pyrazol-4-olate], it took 641 nM to reach a half-maximal effect (EC50). The molecule `CC(C)(C)C1CCc2nc3sc(C(=O)NC(CCN4CCC(O)CC4)c4ccc(N5CCC(O)C5=O)nc4)nc3cc2C1` (racemic) [Example 188, rac-(7S)-7-tert-butyl-N-[rac-(1R)-1-[6-(3-hdyroxy-2-oxo-pyrrolidin-1-yl)-3-pyridyl]-3-(4-hydroxy-1-piperidyl)propyl]-5,6,7,8-tetrahydrothiazolo[5,4-b]quinoline-2-carboxamide] yielded a half-maximal effective concentration (EC50) of 938 nM. `CC(C)(C)[C@H]1CCc2nc3sc(C(=O)N[C@H](CCN4CCC(O)CC4)c4ccc(N5CCC(O)CC5)nc4)nc3cc2C1` (racemic) [Example 189, rac-(7S)-7-tert-butyl-N-[rac-(1R)-3-(4-hydroxy-1-piperidyl)-1-[6-(4-hydroxy-1-piperidyl)-3-pyridyl]propyl]-5,6,7,8-tetrahydrothiazolo[5,4-b]quinoline-2-carboxamide]: a half-maximal response (EC50) required 1380 nM. This EC50 and that of the molecule before are within 1.5-fold of each other. `CC(C)(C)[C@H]1CCc2nc3sc(C(=O)N[C@H](CCN4CCC(O)CC4)c4ccc(N5CCC(O)C5)nc4)nc3cc2C1` (mixture of isomers) [Example 190, rac-(7S)-7-tert-butyl-N-[rac-(1R)-3-(4-hydroxy-1-piperidyl)-1-[6-(3-hydroxypyrrolidin-1-yl)-3-pyridyl]propyl]-5,6,7,8-tetrahydrothiazolo[5,4-b]quinoline-2-carboxamide] gave an EC50 of 1910 nM. As to `Cc1n[nH]c(C)c1Oc1ccc([C@@H](CCN2CCC(O)CC2)NC(=O)c2nc3cc4c(nc3s2)CC[C@H](C(C)(C)C)C4)cn1` (racemic) [Example 191, rac-(7S)-7-tert-butyl-N-[rac-(1R)-1-[6-[(3,5-dimethyl-1H-pyrazol-4-yl)oxy]-3-pyridyl]-3-(4-hydroxy-1-piperidyl)propyl]-5,6,7,8-tetrahydrothiazolo[5,4-b]quinoline-2-carboxamide], the concentration for a half-maximal effect (EC50) was 632 nM. `CC(C)(C)[C@H]1CCc2nc3sc(C(=O)N[C@H](CCN4CCC(O)CC4)c4ccc(OCCO)nc4)nc3cc2C1` (racemic) [Example 192, rac-(7S)-7-tert-butyl-N-[rac-(1R)-1-[6-(2-hydroxyethoxy)-3-pyridyl]-3-(4-hydroxy-1-piperidyl)propyl]-5,6,7,8-tetrahydrothiazolo[5,4-b]quinoline-2-carboxamide]: the EC50 was determined as 665 nM. As for `CC(C)(C)[C@H]1CCc2nc3sc(C(=O)N[C@H](CCN4CCC(O)CC4)c4ccc(OCC(N)=O)nc4)nc3cc2C1` (racemic) [Example 193, rac-(7S)-7-tert-butyl-N-[rac-(1R)-1-[6-(2-amino-2-oxo-ethoxy)-3-pyridyl]-3-(4-hydroxy-1-piperidyl)propyl]-5,6,7,8-tetrahydrothiazolo[5,4-b]quinoline-2-carboxamide], the 50% effective concentration (EC50) came to 787 nM.
